The values that follow are results of earlier work, collected in patent US8540972B2, “Sunscreen product comprising hydroxyapatite as physical filter” (Kalichem Italia S.R.L., priority 2009, dated 2013).

The subject of the series is HeLa cells.

Take titanium dioxide [TiO2]: the “fate of HeLa cells after UV irradiation in the presence of the substance” value is reported as “die”.
